# Results from patent publication US6017886A, “Use of NDF peptide as growth factor for sensory epithelium” (Amgen Inc., priority 1999, dated 2000).
# Experiments:
# Format in all cases: cell-based
# [1] = test system: utricular epithelium from seven day-old rats; assay: BrdU incorporation (mitogenic activity) in primary culture of infant rat utricular sensory epithelium; settings: for number of BrdU-positive nuclei per piece of epithelium: 50 ng/ml, seventy-two hours culture, infant (seven day-old) rat epithelium, control 50±7
# Description: (§1) Sensory edithelial cells obtained from utricles in the inner ear of both seven day-old (infant) rats and six week-old (adult) rats were isolated with the use of thermolysin treatment; see Corwin et al., Abstracts of the Association for Research in Otolaryngology, Volume 18, page 87 (1995). All edges were trimmed away and the central portion of the epithelium was cut into quarters. Epithelial cells from the infant rats were cultured in DMEM/F12 with 10% FBS (Gibco BRL, Grand Island, N.Y.), and 3 micrograms per milliliter (μg/ml) of mitosis tracer BrdU (Aldrich Chemicals, Milwaukee, Wis.) for seventy-two hours, with or without 50 nanograms per milliliter (ng/ml) of the peptide of SEQ ID NO: 1 or 50 ng/ml of recombinant derived FGF-10, recombinant derived FGF-16, recombinant derived ciliary-derived neurotrophic factor (CNTF), recombinant derived neurotrophic growth facor (NGF), recombinant derived glial-derived neurotrophic factor (GDNF), recombinant derived keratinocyte growth factor (KGF), or a control (no growth factor present). The experiment was ended by fixing in 4% paraformaldehyde for one hour.
# After several washes, the explants were immunostained for calretinin (a vestibular organ hair cell marker) using rabbit antiserum (SWant Swiss Antibodies, Belinzona, Switzerland), diluted 1:10,000. The secondary antibody was goat anti-rabbit immunoglobulin conjugated to biotin, diluted 1:1,000. Extensive washes were followed by incubating the explants with egg white avidin conjugated to Cy3, diluted 1:1,000. The explants were fixed again with paraformaldehyde as described above, then processed for BrdU immunostaining (a measure of cell proliferation) using standard immunostaining protocols. The mouse monoclonal ant-BrdU antibody was obtained from Caltag Laboratories of San Franscisco, Calif. The secondary antibody, a goat anti-mouse conjugated to FITC, was obtained from Antibodies, Inc. of Davis, Calif.
# [2] = test system: adult rat utricular epithelium; assay: BrdU incorporation (mitogenic activity) in primary culture of adult rat utricular sensory epithelium; settings: adult (six week-old) rat, thirteen days culture, factor added for the last five days, BrdU last two days
# Description: as §1
# For the adult rats, the total time for cell culture was thirteen days, with the peptide of SEQ ID NO: 1 or other growth factor being added for the last five days and the BrdU ([…]) for the last two days. The experiment was ended as above by fixing the explants in paraformaldehyde. […]
# [3] = test system: utricular cell line derived from a transgenic mouse; assay: Cell proliferation by ELISA for BrdU in established utricular cell line; settings: 50 ng/ml added twenty-four hours prior to fixation, BrdU final sixteen hours
# Description: An established utricular cell line was derived from a transgenic mouse, using the procedure described by Gu et al. in Abstracts of the Association for Research in Otolaryngology, Volume 21, page 16 (1998). The cell line was cultured at 37° C. for three days in DMEM/F12 (Gibco BRL), containing N2 supplement (Sigma Chemical Company, St. Louis, Mo.) in a proportion of 1:100, under conditions restricting oncogene expression. For the treated group, fifty nanograms per milliliter of the peptide of SEQ ID NO: 1 were added twenty-four hours prior to fixation. Three micrograms per milliliter of BrdU (Aldrich Chemicals) were added for the final sixteen hours.
# Cell proliferation was measured by ELISA for BrdU. Briefly, cells were fixed with 4% paraformaldehyde (Amersham, Life Sciences, Cleveland, Ohio) for one hour at room temperature. After treatment with 2N HCl for twenty minutes, the cells were washed and then sequentially incubated for one hour with a monocolonal antibody against BrdU (Caltag Laboratories) and horse anti-mouse antibody conjugated to biotin (Vector Laboratories, Burlingame, Calif.). After washing, the cells were further incubated with Europium streptavidin (Wallac Inc., Gaithersburg, Md.) diluted 1:1,000 and processed for time-resolved fluorescence in accordance with the manufacturer's recommendations. The signal was read on a Victor 1420 multi-label counter (Wallac Inc.).
# [4] = test system: young rat utricular sensory epithelial cells; assay: Comparison with other NDF/heregulins, BrdU-positive nuclei in primary culture; settings: 50 ng/ml, FIG. 5
# Description: as §1
# After several washes, the explants were immunostained for calretinin (a vestibular organ hair cell marker) using rabbit antiserum (SWant Swiss Antibodies, Belinzona, Switzerland), diluted 1:10,000. […]
Substance,number of BrdU-positive nuclei per piece of epithelium [1],"presence of BrdU-positive nuclei in supporting cells versus control (untreated) cells ([1]; infant rat sensory epithelium primary culture, FIGS. 4A and 4B)",increase in proliferation of adult rat sensory epithelial cells over the control group [2],ELISA reading (BrdU) relative to control (untreated) group [3],increase in induction of cell proliferation over the control [4]
FGF-16: recombinant derived FGF-16 [reference compound],100±16,,,,
NGF: recombinant derived neurotrophic growth facor (NGF) [reference compound],50±9,,,,
"SHLVKCAEKEKTFCVNGGECFMVKDLSNPSRYLCKCQPGFTGARCQNYVMAS [SEQ ID NO: 1, hybrid form derived from the EGF-like domains of NDF-α and NDF-β]",397±33,very noticeable increase,32.5 fold,1.7 times,29 fold
